Data as given in US10562863B2, “Heterobifunctional linker” (THE GOVERNORS OF THE UNIVERSITY OF ALBERTA, priority 2016, dated 2020).

The molecules below were run against T1, branched-chain amino acid-binding protein LivF (Escherichia coli, UniProt P0AD96) (assay: Competitive lateral flow assay, LivF test band). Conditions: free Leu 0.5 and 2 mg/ml; 1M urea; citrate 2 mg/ml.
T1 construct: inferred from the pET15b vector and Ni-NTA purification; made in house; host or cells: E. coli BL21
Design: species or system E. coli
Excerpt: We generated a useful metabolite sensor using a combination of a lateral flow assay (LFA), a metabolite-L1-AuNP conjugate (Leucine) and metabolite-specific protein. […] In our assay, the branched-chain amino acid-binding protein LivF35 was loaded onto nitrocellulose strips as the detection protein (“Test band”) and as the “Control band” the glutamate/aspartate binding protein Gltl36 was used, since the gold nanoparticles are stabilized with glutamate on their surface and that can be detected by Gltl as flow control. Leucine-decorated gold nanoparticles were loaded at the end of the strip in solution, with or without competing free leucine and the flow assay was performed.
To prepare the LFA strips, lug of each protein (from a 0.5 ug/ul solution in 50 mM phosphate buffer, pH 7.5) was loaded onto FF80 nitrocellulose strips as a 0.5 cm line. 20 ul of a suspension of metabolite-coated AuNPs (3 mg/mL) was loaded onto the end of the membrane strips and allowed to flow through via capillary action. Bands showing the captured gold nanoparticles were documented with an electronic flatbed scanner (Canon Canoscan 5600).

T1 sequence (P0AD96 24-367): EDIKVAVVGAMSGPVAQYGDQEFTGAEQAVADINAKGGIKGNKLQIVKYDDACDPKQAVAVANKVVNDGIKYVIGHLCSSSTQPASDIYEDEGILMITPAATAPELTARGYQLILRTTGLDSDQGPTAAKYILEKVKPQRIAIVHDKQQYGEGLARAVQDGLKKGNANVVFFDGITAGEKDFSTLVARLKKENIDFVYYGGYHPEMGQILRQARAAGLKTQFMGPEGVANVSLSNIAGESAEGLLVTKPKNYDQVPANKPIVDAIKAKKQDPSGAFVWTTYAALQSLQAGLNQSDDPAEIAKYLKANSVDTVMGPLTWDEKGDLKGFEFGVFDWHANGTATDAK

SMILES | Effect of free metabolite on LivF detection of leucine-coated AuNP
CC(C)C[C@H](N)C(=O)O [free leucine, leucine] | abrogated
NC(N)=O [urea] | not hampered
O=C(O)CC(O)(CC(=O)O)C(=O)O [citrate] | not hampered
